# Assay results taken from BindingDB's records for patent US9694016 (Novartis AG, 2017).
# Molecular target: RAF proto-oncogene serine/threonine-protein kinase [Y340E,Y341E] (Human, UniProt P04049, Y340E/Y341E)
# Assay: Raf Activity Assay
# Settings: pH 7.5; 25 °C
# Method: The plate was incubated for 60 minutes at room temperature. The Raf kinase activity reaction was started by the addition of 5 mL per well of 2xATP diluted in assay buffer. […] The additions were carried out under dark conditions to protect the detection beads from light. A lid was placed on top of the plate and incubated for 1 hour at room temperature, then the luminescence was read on a PerkinElmer Envision instrument.
# RAF proto-oncogene serine/threonine-protein kinase [Y340E,Y341E], sequence (P04049 whole entry Y340E/Y341E): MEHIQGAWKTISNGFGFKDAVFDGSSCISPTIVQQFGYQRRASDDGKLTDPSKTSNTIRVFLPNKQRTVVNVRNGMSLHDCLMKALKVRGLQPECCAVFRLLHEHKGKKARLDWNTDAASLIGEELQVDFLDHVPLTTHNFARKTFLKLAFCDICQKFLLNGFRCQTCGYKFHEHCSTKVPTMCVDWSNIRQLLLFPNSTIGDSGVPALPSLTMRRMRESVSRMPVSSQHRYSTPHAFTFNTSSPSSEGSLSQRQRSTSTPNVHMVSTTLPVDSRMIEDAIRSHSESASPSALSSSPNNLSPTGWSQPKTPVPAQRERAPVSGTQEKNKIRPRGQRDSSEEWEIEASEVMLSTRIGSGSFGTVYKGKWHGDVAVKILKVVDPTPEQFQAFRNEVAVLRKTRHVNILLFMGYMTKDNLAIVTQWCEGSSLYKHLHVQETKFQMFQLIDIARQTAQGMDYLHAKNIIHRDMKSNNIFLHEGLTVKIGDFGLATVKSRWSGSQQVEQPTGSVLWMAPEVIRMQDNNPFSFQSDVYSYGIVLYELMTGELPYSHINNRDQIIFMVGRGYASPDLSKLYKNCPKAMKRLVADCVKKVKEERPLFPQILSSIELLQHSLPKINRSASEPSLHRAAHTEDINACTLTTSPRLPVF
row,Structure (SMILES),IC50
1,"CCOc1nc(-c2cc(NC(=O)c3ccnc(C(C)C)c3)ccc2C)cc(N2CCOCC2)n1 [US9694016, 763]",0.2 nM
2,"Cc1ncc(NC(=O)c2ccnc(C(C)(C)C#N)c2)cc1-c1cnc(OC(F)F)c(N2CCOCC2)c1 [US9694016, 225]",3.9 nM
3,"COc1nnc(-c2cc(NC(=O)c3ccnc(C(C)(C)F)c3)cnc2C)cc1N1CCOCC1 [US9694016, 608]",2 nM
4,"Cn1cc(-c2cc(NC(=O)c3ccnc(C(C)(F)F)c3)ccc2C#N)cc(N2CCOCC2)c1=O [US9694016, 416]",200 nM
5,"CCOc1nnc(-c2cc(NC(=O)c3ccnc(C(F)(F)F)c3)ccc2C)cc1N1CCOCC1 [US9694016, 566]",0.2 nM
6,"Cc1ccc(NC(=O)c2ccnc(C(C)(C)C#N)c2)cc1-c1cc(N2CCOCC2)nc(OC2CNC2)n1 [US9694016, 777]",0.08 nM
7,"Cc1ncc(NC(=O)c2ccnc(C(C)(F)F)c2)cc1-c1cc(N2CCOC[C@@H]2C)n(C)c(=O)c1 [US9694016, 526]",9.4 nM
8,"Cc1ncc(NC(=O)c2ccnc(C(C)(F)F)c2)cc1-c1cnc(C#N)c(N2CCOCC2)c1 [US9694016, 250]",0.8 nM
9,"Cc1ncc(NC(=O)c2cnnc(C(C)(C)C#N)c2)cc1-c1cc(N2CCOCC2)c(OC2CCOCC2)nn1 [US9694016, 635]",6.6 nM
10,"Cc1ncc(NC(=O)c2ccnc(C3(C#N)CC3)c2)cc1-c1cnc(OC2CCOCC2)c(N2CCOCC2)c1 [US9694016, 940]",1.33 nM
11,"CCOc1nnc(-c2cc(NC(=O)c3cccc(C(F)F)c3)cnc2C)cc1N1CCOCC1 [US9694016, 619]",0.5 nM
12,"CCNc1nc(-c2cc(NC(=O)c3cccc(S(C)(=O)=O)c3)ccc2C)cc(N2CCOCC2)n1 [US9694016, 704]",0.08 nM
13,"Cc1ncc(NC(=O)c2cc(CN(C)C)cc(C(F)(F)F)c2)cc1-c1cc(N2CCOCC2)c(=O)n(C)c1 [US9694016, 401]",12 nM
14,"CNC(=O)C1CN(c2cc(-c3cc(NC(=O)c4cccc(C(F)(F)F)c4)cnc3C)nn3ccnc23)CCO1 (stereo unspecified) [US9694016, 874]",3.4 nM
15,"CCNc1nc(-c2cc(NC(=O)c3ccnc(C(C)(F)F)c3)cnc2C)cc(N2CCOCC2)n1 [US9694016, 725]",1.2 nM
16,"Cc1ccc(NC(=O)c2ccnc(C3CC3)c2)cc1-c1cc(N2CCOCC2)c(=O)n(C)n1 [US9694016, 656]",0.3 nM
